Measured values published in the NIST ThermoML archive (doi:10.1016/j.fluid.2005.07.017).

Details: Liquid, Vibrating tube method

c1ccsc1 [thiophene]
Details	mass density [kg/m3]
293.15 K, 101 kPa	1063.59
303.15 K, 101 kPa	1051.55
313.09 K, 1029 kPa	1040.96
313.09 K, 1969 kPa	1041.84
313.09 K, 2970 kPa	1042.78
313.09 K, 3987 kPa	1043.71
313.09 K, 5055 kPa	1044.72
313.09 K, 5952 kPa	1045.51
313.09 K, 6937 kPa	1046.43
313.09 K, 8032 kPa	1047.39
313.09 K, 9218 kPa	1048.44
313.09 K, 10045 kPa	1049.18
313.09 K, 11012 kPa	1050.03
313.09 K, 12014 kPa	1050.9
313.09 K, 12995 kPa	1051.74
313.09 K, 13961 kPa	1052.59
313.09 K, 14970 kPa	1053.43
313.09 K, 15953 kPa	1054.26
313.09 K, 17004 kPa	1055.16
313.09 K, 18003 kPa	1055.95
313.09 K, 18904 kPa	1056.76
313.15 K, 101 kPa	1039.32
323.01 K, 1047 kPa	1028.97
323.01 K, 2059 kPa	1029.98
323.01 K, 3070 kPa	1031.02
323.01 K, 4047 kPa	1031.99
323.01 K, 5002 kPa	1032.9
323.01 K, 6005 kPa	1033.9
323.01 K, 7068 kPa	1034.92
323.01 K, 8021 kPa	1035.81
323.01 K, 9013 kPa	1036.76
323.01 K, 10005 kPa	1037.67
323.01 K, 10991 kPa	1038.62
323.01 K, 12034 kPa	1039.58
323.01 K, 12977 kPa	1040.44
323.01 K, 13999 kPa	1041.38
323.01 K, 14991 kPa	1042.26
323.01 K, 15995 kPa	1043.17
323.01 K, 16998 kPa	1044.03
323.01 K, 17983 kPa	1044.93
323.01 K, 18951 kPa	1045.78
323.15 K, 101 kPa	1026.98
332.85 K, 1015 kPa	1016.93
332.85 K, 2035 kPa	1018
332.85 K, 3004 kPa	1019.06
332.85 K, 3964 kPa	1020.05
332.85 K, 4991 kPa	1021.14
332.85 K, 6001 kPa	1022.17
332.85 K, 7014 kPa	1023.21
332.85 K, 7998 kPa	1024.2
332.85 K, 9009 kPa	1025.23
332.85 K, 9995 kPa	1026.19
332.85 K, 10989 kPa	1027.18
332.85 K, 12006 kPa	1028.17
332.85 K, 13009 kPa	1029.18
332.85 K, 13971 kPa	1030.09
332.85 K, 15006 kPa	1031.04
332.85 K, 15990 kPa	1032.01
332.85 K, 17050 kPa	1033.03
332.85 K, 17976 kPa	1033.88
332.85 K, 19018 kPa	1034.92
333.15 K, 101 kPa	1014.58
342.77 K, 1039 kPa	1004.75
342.77 K, 2072 kPa	1005.93
342.77 K, 3033 kPa	1007.02
342.77 K, 4023 kPa	1008.17
342.77 K, 5027 kPa	1009.26
342.77 K, 6033 kPa	1010.36
342.77 K, 7008 kPa	1011.44
342.77 K, 7998 kPa	1012.5
342.77 K, 9005 kPa	1013.59
342.77 K, 10000 kPa	1014.65
342.77 K, 10963 kPa	1015.65
342.77 K, 12009 kPa	1016.72
342.77 K, 13023 kPa	1017.82
342.77 K, 13928 kPa	1018.74
342.77 K, 15009 kPa	1019.83
342.77 K, 15998 kPa	1020.79
342.77 K, 17025 kPa	1021.8
342.77 K, 17995 kPa	1022.8
342.77 K, 19013 kPa	1023.79
342.77 K, 20001 kPa	1024.73
343.15 K, 101 kPa	1002.15
352.67 K, 1064 kPa	992.39
352.67 K, 2003 kPa	993.54
352.67 K, 3024 kPa	994.79
352.67 K, 4003 kPa	995.98
352.67 K, 5048 kPa	997.22
352.67 K, 6013 kPa	998.36
352.67 K, 7013 kPa	999.51
352.67 K, 8050 kPa	1000.73
352.67 K, 9018 kPa	1001.82
352.67 K, 10003 kPa	1002.93
352.67 K, 11003 kPa	1004.07
352.67 K, 12004 kPa	1005.16
352.67 K, 12998 kPa	1006.25
352.67 K, 14005 kPa	1007.34
352.67 K, 15038 kPa	1008.46
352.67 K, 16006 kPa	1009.49
352.67 K, 17027 kPa	1010.58
352.67 K, 18001 kPa	1011.6
352.67 K, 19031 kPa	1012.65
352.67 K, 20017 kPa	1013.74
353.15 K, 101 kPa	989.76
362.51 K, 1007 kPa	979.8
362.51 K, 2022 kPa	981.13
362.51 K, 3029 kPa	982.49
362.51 K, 4004 kPa	983.74
362.51 K, 5006 kPa	985.01
362.51 K, 6003 kPa	986.27
362.51 K, 6999 kPa	987.5
362.51 K, 7993 kPa	988.73
362.51 K, 9007 kPa	989.99
362.51 K, 9993 kPa	991.16
362.51 K, 10997 kPa	992.36
362.51 K, 11993 kPa	993.56
362.51 K, 12838 kPa	994.53
362.51 K, 14038 kPa	995.94
362.51 K, 15044 kPa	997.1
362.51 K, 16029 kPa	998.18
362.51 K, 17006 kPa	999.27
362.51 K, 18016 kPa	1000.4
362.51 K, 18987 kPa	1001.47
